Measurements reported in the supplement of paper PMC8967900.

Key:
Test in all cases: selective drug sensitivity score (sDSS, relative to normal bone marrow) (sDSS (score)); higher = more potent and effective on the cell line relative to normal bone marrow cells
Settings in all cases: 72 h
KASUMI-10 = system: KASUMI-10
TMD5 = system: TMD5
PF-382 = system: PF-382
RPMI-8402 = system: RPMI-8402
LC4-1 = system: LC4-1
COG-LL-332h = system: COG-LL-332h
CCRF-CEM = system: CCRF-CEM
MHH-CALL-3 = system: MHH-CALL-3
HPB-ALL = system: HPB-ALL
NALM-6 = system: NALM-6
COG-LL-402h = system: COG-LL-402h
HAL-01 = system: HAL-01
ALL-SIL = system: ALL-SIL
SEM cells = system: SEM cells
KASUMI-2 = system: KASUMI-2
KOPN-8 = system: KOPN-8
NALM-16 = system: NALM-16
DND-41 = system: DND-41
MOLT-16 = system: MOLT-16
KASUMI-9 = system: KASUMI-9
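Note: ALL cell lines in 384-well plates, five doses spanning 10,000-fold, each plate scaled between vehicle and 100 µmol/L benzalkonium chloride controls, sDSS an adapted area-under-curve metric.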

Compound	selective drug sensitivity score (KASUMI-10)	selective drug sensitivity score (TMD5)	selective drug sensitivity score (PF-382)	selective drug sensitivity score (RPMI-8402)	selective drug sensitivity score (LC4-1)	selective drug sensitivity score (COG-LL-332h)	selective drug sensitivity score (CCRF-CEM)	selective drug sensitivity score (MHH-CALL-3)	selective drug sensitivity score (HPB-ALL)	selective drug sensitivity score (NALM-6)	selective drug sensitivity score (COG-LL-402h)	selective drug sensitivity score (HAL-01)	selective drug sensitivity score (ALL-SIL)	selective drug sensitivity score (SEM cells)	selective drug sensitivity score (KASUMI-2)	selective drug sensitivity score (KOPN-8)	selective drug sensitivity score (NALM-16)	selective drug sensitivity score (DND-41)	selective drug sensitivity score (MOLT-16)	selective drug sensitivity score (KASUMI-9)
COc1cccc2c1C(=O)c1c(O)c3c(c(O)c1C2=O)C[C@@](O)(C(=O)CO)C[C@@H]3O[C@H]1C[C@H](N)[C@@H](O)[C@H](C)O1 [Epirubicin] (top concentration 1000 nM)	5.82	1.02	2.12	6.62	7.62	11.3	8.02	14.8	0.12	3.82	14.9	-4.28	0.42	3.82	7.72	9.42	-0.28	-0.58	15.4	7.62
Cc1sc2c(c1C)C(c1ccc(Cl)cc1)=N[C@@H](CC(=O)NCCCCNC(=O)COc1cccc3c1C(=O)N(C1CCC(=O)NC1=O)C3=O)c1nnc(C)n1-2 (stereo not given in full) [dBET1] (top concentration 10000 nM)	2.32	-13.8	-8.28	-6.68	5.22	-8.98	-3.68	-1.88	-12.7	-4.78	2.22	-14.9	-7.08	-3.38	-6.88	7.82	-4.48	-0.88	1.42	2.42
CN(Cc1cnc2nc(N)nc(N)c2n1)c1ccc(C(=O)N[C@@H](CCC(=O)O)C(=O)O)cc1 [Methotrexate] (top concentration 5000 nM)	9.88	-0.42	11.7	20.2	-0.02	11.3	13	10.4	5.28	16.4	2.38	17.1	15	-0.42	0.28	-0.12	6.68	15	15.7	-0.42
CON(C)C(=O)N1N=C(c2cc(F)ccc2F)S[C@@]1(CCCN)c1ccccc1 [Filanesib] (top concentration 1000 nM)	14.2	10.5	12.5	18.9	13.2	21.1	16.2	5.2	20.3	21	17.7	11.5	16.6	20.3	19.8	9.8	16.6	6.3	21.2	12.4
CO[C@H]1C[C@@H]2CC[C@@H](C)[C@@](O)(O2)C(=O)C(=O)N2CCCC[C@H]2C(=O)O[C@H]([C@H](C)C[C@@H]2CC[C@@H](OCCO)[C@H](OC)C2)CC(=O)[C@H](C)/C=C(\C)[C@@H](O)[C@@H](OC)C(=O)[C@H](C)C[C@H](C)/C=C/C=C/C=C/1C [Everolimus] (top concentration 100 nM)	-5.3	-3.8	1.9	-0.7	3.3	4.5	5.9	3.4	-5.3	-3.8	1	2.7	-0.2	1.4	11.8	19.6	-2	1.1	8.1	10.3
CN1CCN(C2CCC(n3cc(-c4ccc(Oc5ccccc5)cc4)c4c(N)ncnc43)CC2)CC1 (stereo not given) (top concentration 10000 nM)	8.52	10.2	7.12	3.52	-1.78	6.42	1.12	6.92	0.32	3.42	18.2	7.52	16.3	9.62	-1.38	5.02	0.72	3.62	0.52	6.52
CC[C@@]1(O)C(=O)OCc2c1cc1n(c2=O)Cc2cc3c(CN(C)C)c(O)ccc3nc2-1 [Topotecan] (top concentration 10000 nM)	18	14.3	18.2	19.4	21.7	23.9	21.2	12.2	11.2	17.1	17.7	20	24.9	20.3	14.7	23.4	7.18	21.4	21.5	18.2
CC[C@H](CC#N)OC(=O)N[C@@H](C)c1cccc(NC(=O)Nc2ccc(-c3cnco3)c(OC)c2)c1 [AVN944] (top concentration 10000 nM)	10.1	2.74	10.2	11.9	5.34	18	12.1	11.1	5.64	15.5	9.64	5.54	6.64	7.04	14.4	19.5	0.24	8.44	22.3	13.5
COc1ccc(-c2ccc3c(N4CCOC[C@@H]4C)nc(N4CCOC[C@@H]4C)nc3n2)cc1CO [AZD8055] (top concentration 10000 nM)	0.48	-1.62	9.18	7.78	6.38	8.08	13.4	-0.52	0.18	3.68	9.88	5.08	6.78	6.18	14.6	22.6	1.78	4.78	12.5	13.3
O=c1[nH]c(=O)n([C@H]2C[C@H](O)[C@@H](CO)O2)cc1C(F)(F)F [Trifluridine] (top concentration 10000 nM)	6.36	-1.84	4.16	15.5	16	7.46	14.2	6.56	4.66	15	8.26	8.76	13.7	14.5	10.3	17.4	4.06	9.76	15.1	6.56
